Data taken from PMC10342533, “Novel Tetrazole Derivatives Targeting Tubulin Endowed with Antiproliferative Activity against Glioblastoma Cells” (International Journal of Molecular Sciences, 2023).
In brackets after ≈: the same amount, converted by molar mass.

Tests used:
[1] = Aqueous solubility, shake-flask method, phosphate buffer pH 7.4; format: physicochemical; settings: thermodynamic from solid, phosphate buffer pH 7.4, shake-flask, mean ± SD of three experiments
Experimental: The aqueous solubility of tetrazole derivatives was determined by the shaking flask methodology in phosphate buffer at pH 7.4, microfiltration, and quantification of the saturated solutions via UV spectroscopy. […] The introduction of polar groups on the 3-indole position was favorable since the most soluble compounds were the oximes 16–19 (38–53 µg/mL), followed by the carbaldehyde series 12–15 (33–45 µg/mL), and the carbonitrile derivatives (25–40 µg/mL), whereas the unsubstituted indoles 8–11 were the least soluble series (19–35 µg/mL).
The aqueous solubility of the compounds was determined using the saturation shake-flask method. First, calibration lines at the maximum wavelength of absorbance were determined for each compound. Then, 5 mg of each compound was suspended in 500 µL of pH 7.4 buffer, and the resulting mixture was shaken for 72 h at room temperature and filtrated over a […] filter to remove the insoluble fraction. The concentration of the compound in the supernatant (saturated solution) was determined by measuring UV absorbance at the maximum wavelength of absorbance and interpolation in the calibration line. A Helios Alfa Spectrophotometer was used for the UV measurements. The aqueous solubility values are given as the average of three independent experiments.

[2] = tested on: HeLa (cervix epithelioid carcinoma); experiment: Cell growth inhibition, MTT assay, HeLa; format: cell-based; settings: Homo sapiens
Experimental: (§1) The ability of the synthesized compounds to inhibit the cell proliferation of human cancer cell lines was assayed by measuring cell viability through the use of the MTT method 72 h after treatment. For this purpose, representative cell lines of the most frequent kinds of cancer were selected, including the following: HeLa (cervix epithelioid carcinoma), MCF7 (breast adenocarcinoma), U87 MG (glioblastoma), T98G (temozolomide resistant glioblastoma), HepG2 (hepatocellular carcinoma), HCT8 (colorectal carcinoma), and HT-29 (colon adenocarcinoma).
(§2) The cell lines were obtained from ATTC (Manassas, VA, USA). […] The cells were periodically tested for Mycoplasma infection by using a MycoAlert kit (Lonza, Norwest, Australia), and only Mycoplasma-free cells were used in the experiments.
(§3) Then, every compound was added (10 µL/well) to a final concentration of 10 µM. Untreated cells were used as negative controls. The antiproliferative activity of compounds was measured 72 h after drug exposure through the MTT assay. […] For this purpose, compounds were used at different concentrations, ranging from 10^−10 to 10^−2 M. Measurements were performed in triplicate, and each experiment was repeated three times. The IC50 values were determined using Origin software (version 9.6, OriginLab, Washington, DC, USA).

[3] = tested on: MCF7 (breast adenocarcinoma); experiment: Cell growth inhibition, MTT assay, MCF7; format: cell-based; settings: Homo sapiens
Experimental: as §1, §2, §3

U87 MG (glioblastoma) = experiment: Cell growth inhibition, MTT assay, U87 MG; format: cell-based; settings: Homo sapiens, U-87 MG
Experimental: as §1, §2, §3

[4] = tested on: T98G (temozolomide resistant glioblastoma); experiment: Cell growth inhibition, MTT assay, T98G; format: cell-based; settings: Homo sapiens
Experimental: as §1, §2, §3

[5] = tested on: HepG2 (hepatocellular carcinoma); experiment: Cell growth inhibition, MTT assay, HepG2; format: cell-based; settings: Homo sapiens
Experimental: as §1, §2, §3

[6] = tested on: HCT8 (colorectal carcinoma); experiment: Cell growth inhibition, MTT assay, HCT8; format: cell-based; settings: Homo sapiens
Experimental: as §1, §2, §3

[7] = tested on: HT-29 (colon adenocarcinoma); experiment: Cell growth inhibition, MTT assay, HT-29, without or with verapamil; format: cell-based, human
Experimental: as §1
Multidrug resistance (MDR) proteins, especially P-glycoprotein (P-gp), are often involved in resistance mechanisms affecting tubulin-binding drugs that are frequently related to the failure of cancer therapies. […] These pumps are also part of the blood–brain barrier.
as §2, §3

[8] = tested on: HEK-293 (embryonic kidney); experiment: Cell growth inhibition, MTT assay, non-tumor HEK-293; format: cell-based; settings: Homo sapiens
Experimental: The ability of the synthesized compounds to inhibit the cell proliferation of human cancer cell lines was assayed by measuring cell viability through the use of the MTT method 72 h after treatment. For this purpose, representative cell lines of the most frequent kinds of cancer were selected, including the following: HeLa (cervix epithelioid carcinoma), MCF7 (breast adenocarcinoma), U87 MG (glioblastoma), T98G (temozolomide resistant glioblastoma), HepG2 (hepatocellular carcinoma), HCT8 (colorectal carcinoma), and HT-29 (colon adenocarcinoma). […] The compounds were also tested against the non-tumor HEK-293 cells to study their selectivity toward cancer cells. […] The cell lines were obtained from ATTC (Manassas, VA, USA). […] The cells were periodically tested for Mycoplasma infection by using a MycoAlert kit (Lonza, Norwest, Australia), and only Mycoplasma-free cells were used in the experiments. […] Louis, MO, USA), which was dissolved in PBS at 5 mg/mL in accordance with the manufacturer's instructions. […] Untreated cells were used as negative controls. The antiproliferative activity of compounds was measured 72 h after drug exposure through the MTT assay. […] For this purpose, compounds were used at different concentrations, ranging from 10^-10 to 10^-2 M. Measurements were performed in triplicate, and each experiment was repeated three times. The IC50 values were determined using Origin software (version 9.6, OriginLab, Washington, DC, USA).

[9] = molecular target: T1, microtubular protein isolated from calf brains (bovine brain tubulin) (Bos taurus, UniProt P81947+Q6B856); experiment: Tubulin polymerization inhibition (TPI); format: biochemical; settings: in vitro tubulin polymerization, mean ± SD
T1 construct: from tissue; host or cells: calf (bovine) brain
T1 sequence (Q6B856 whole entry): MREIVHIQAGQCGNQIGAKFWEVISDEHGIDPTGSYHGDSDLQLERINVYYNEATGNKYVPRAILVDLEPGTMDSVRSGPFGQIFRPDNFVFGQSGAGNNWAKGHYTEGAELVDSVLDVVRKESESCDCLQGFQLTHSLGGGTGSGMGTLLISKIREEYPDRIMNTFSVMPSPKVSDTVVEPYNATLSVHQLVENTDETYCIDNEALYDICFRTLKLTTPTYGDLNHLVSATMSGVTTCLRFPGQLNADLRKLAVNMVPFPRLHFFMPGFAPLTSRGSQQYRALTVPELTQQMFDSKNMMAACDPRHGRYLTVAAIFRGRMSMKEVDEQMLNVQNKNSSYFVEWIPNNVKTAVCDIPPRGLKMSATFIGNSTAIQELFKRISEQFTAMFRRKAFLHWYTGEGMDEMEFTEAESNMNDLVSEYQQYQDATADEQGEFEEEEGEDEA
T1 sequence (P81947 whole entry): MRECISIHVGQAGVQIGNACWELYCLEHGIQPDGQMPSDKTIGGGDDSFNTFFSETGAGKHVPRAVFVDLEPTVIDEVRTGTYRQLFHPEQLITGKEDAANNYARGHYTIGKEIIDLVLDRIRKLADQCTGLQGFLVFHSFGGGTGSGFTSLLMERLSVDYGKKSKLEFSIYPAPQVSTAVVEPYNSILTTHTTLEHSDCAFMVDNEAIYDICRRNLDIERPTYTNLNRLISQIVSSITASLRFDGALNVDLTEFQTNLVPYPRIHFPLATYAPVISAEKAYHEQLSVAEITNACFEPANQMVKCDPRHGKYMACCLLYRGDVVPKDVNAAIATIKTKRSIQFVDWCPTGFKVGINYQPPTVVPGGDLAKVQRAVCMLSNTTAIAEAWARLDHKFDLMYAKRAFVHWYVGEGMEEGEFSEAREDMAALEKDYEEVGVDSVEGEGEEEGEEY
Experimental: We evaluated the capacity of the new synthesized compounds to inhibit the polymerization of microtubular protein isolated from calf brains. The assays were performed by taking absorbance measurements to quantify the amount of polymer mass formed in the presence (or absence; negative controls) of the compounds.
Bovine brain tubulin was isolated as previously described by following a modified version of the Shelanski method. The protein was stored at −80 °C, and its concentration was determined by employing the Bradford method before each use. […] Tubulin polymerization, caused when heating the samples, was accompanied by an increase in the absorbance (at 450 nm) of the sample that was monitored by using a Helios α spectrophotometer. […] Measurements were performed in triplicate in two independent experiments using microtubular proteins from different preparations.

[10] = HCT-8, 72 h after drug exposure
[11] = Homo sapiens, HT-29, 72 h after drug exposure
[12] = Homo sapiens, HT-29, mean ± SD, Table S1
[13] = mean ± SD, Table S1, in the presence of verapamil (10 µM)
[14] = HEK293, 72 h, non-tumorigenic cell line
[15] = HEK293, heading: IC50 HEK-293, mean ± SD, Table S1, non-tumorigenic cell line

solubility at 72 h [1] | IC50 ([2]; 72 h after drug exposure) | IC50 ([2]; mean ± SD, Table S1) | IC50 ([3]; 72 h after drug exposure) | IC50 ([3]; mean ± SD, Table S1) | IC50 (U87 MG (glioblastoma); 72 h after drug exposure) | IC50 (U87 MG (glioblastoma); mean ± SD, Table S1) | IC50 ([4]; 72 h, 72 h after drug exposure) | IC50 ([4]; mean ± SD, Table S1) | IC50 ([5]; 72 h after drug exposure) | IC50 ([5]; mean ± SD, Table S1) | IC50 [6, 10] | IC50 [7, 11] | IC50 [7, 12] | IC50 [7, 13] | IC50 [9] | IC50 ([6]; HCT-8, mean ± SD, Table S1) | SMILES | IC50 [8, 14] | IC50 [8, 15] | also measured
0.0253 ± 0.0001 mg/mL (≈ 68.3 µM) | 0.625 µM | 0.6254 ± 0.0042 µM | 0.631 µM | 0.6314 ± 0.0049 µM | 0.522 µM | 0.5221 ± 0.0031 µM | 0.555 µM | 0.5554 ± 0.0042 µM | 0.634 µM | 0.6345 ± 0.0056 µM | 0.628 µM | 0.679 µM | 0.6794 ± 0.004 µM | 0.6823 ± 0.0063 µM | 6.2 ± 0.3 µM |  | Cn1cc(C#N)c2cc(-n3nnnc3-c3cc(Cl)nc(Cl)c3)ccc21 [Compound 20, 5-(5-(2,6-dichloropyridin-4-yl)-1H-tetrazol-1-yl)-1-methyl-1H-indole-3-carbonitrile] | > 10 µM | > 10 µM | 
0.0478 ± 0.0006 mg/mL (≈ 116 µM) | 0.307 µM | 0.3071 ± 0.0028 µM | 0.339 µM | 0.3395 ± 0.0024 µM | 0.275 µM | 0.275 ± 0.0028 µM | 0.294 µM | 0.294 ± 0.003 µM | 0.341 µM | 0.3414 ± 0.0033 µM | 0.333 µM | 0.355 µM | 0.3555 ± 0.0023 µM | 0.359 ± 0.0041 µM | 4.3 ± 0.2 µM | 0.3332 ± 0.0027 µM | CSc1cc(-c2nnnn2-c2ccc3c(c2)c(C=NO)cn3C)cc(SC)n1 [Compound 19, 5-(5-(2,6-bis(methylsulfanyl)pyridin-4-yl)-1H-tetrazol-1-yl)-1-methyl-1H-indole-3-carbaldehyde oxime] | 8.31 µM |  | 
0.0341 ± 0.0003 mg/mL (≈ 86.7 µM) | 0.841 µM | 0.8411 ± 0.0061 µM | 0.963 µM | 0.9633 ± 0.0071 µM | 0.831 µM | 0.8312 ± 0.0048 µM | 0.865 µM | 0.8652 ± 0.0072 µM | 0.877 µM | 0.8772 ± 0.0059 µM | 0.822 µM | 0.929 µM | 0.9291 ± 0.0078 µM | 0.9275 ± 0.0074 µM | 7.9 ± 0.2 µM | 0.8223 ± 0.0067 µM | CSc1cc(-c2nnnn2-c2ccc3c(c2)c(C#N)cn3C)cc(SC)n1 [Compound 23, 5-(5-(2,6-bis(methylsulfanyl)pyridin-4-yl)-1H-tetrazol-1-yl)-1-methyl-1H-indole-3-carbonitrile] | > 10 µM | > 10 µM | 
 | > 10 µM |  | > 10 µM |  |  |  |  |  | > 10 µM |  | > 10 µM |  | > 0.01 µM |  |  |  | Cn1nnc2c(C(N)=O)ncn2c1=O [TMZ, temozolomide, reference compound] | > 10 µM | > 10 µM | IC50 ([2]; heading: IC50 HeLa, mean ± SD, Table S1): > 10 µM; IC50 ([3]; heading: IC50 MCF7, mean ± SD, Table S1): > 10 µM; IC50 (U87 MG (glioblastoma); 72 h, 72 h after drug exposure): > 100 µM; IC50 ([5]; heading: IC50 HepG2, mean ± SD, Table S1): > 10 µM; IC50 ([6]; HCT-8, heading: IC50 HCT8, mean ± SD, Table S1): > 10 µM

SMILES | solubility at 72 h [1] | IC50 ([2]; 72 h after drug exposure) | IC50 ([2]; mean ± SD, Table S1) | IC50 ([3]; 72 h after drug exposure) | IC50 ([3]; mean ± SD, Table S1) | IC50 (U87 MG (glioblastoma); 72 h after drug exposure) | IC50 (U87 MG (glioblastoma); mean ± SD, Table S1) | IC50 ([4]; 72 h, 72 h after drug exposure) | IC50 ([4]; mean ± SD, Table S1) | IC50 ([5]; 72 h after drug exposure) | IC50 ([5]; mean ± SD, Table S1) | IC50 [6, 10] | IC50 [7, 11] | IC50 [7, 12] | IC50 [7, 13] | IC50 [9] | IC50 ([6]; HCT-8, mean ± SD, Table S1) | IC50 [8, 14] | IC50 [8, 15] | also measured
COc1ccc(/C=C\c2cc(OC)c(OC)c(OC)c2)cc1O [CA-4, combretastatin A4, reference compound] | 0.0011 ± 0.0001 mg/mL (≈ 3.48 µM) | 0.002 µM |  | 0.001 µM | 0.0014 ± 0.0001 µM | 0.01 µM | 0.0101 ± 0.0001 µM | 0.017 µM | 0.0171 ± 0.0002 µM | 0.013 µM | 0.0134 ± 0.0002 µM | 0.22 µM | 0.305 µM | 0.3054 ± 0.0025 µM | 0.3275 ± 0.0022 µM |  | 0.2204 ± 0.002 µM | 0.721 µM |  | 
